This passage reports GI50 results from patent publication US20250206718A1, “NITROGEN-CONTAINING HETEROCYCLIC DERIVATIVE INHIBITOR, PREPARATION METHOD THEREFOR AND USE THEREOF” (SHANGHAI HANSOH BIOMEDICAL CO., LTD., priority 2022, published 2025).

Sequence of Ba/F3 EGFR Del19/C797S cells (P00533 with tags, fused parts or gaps DEL746-750/C797S, form open): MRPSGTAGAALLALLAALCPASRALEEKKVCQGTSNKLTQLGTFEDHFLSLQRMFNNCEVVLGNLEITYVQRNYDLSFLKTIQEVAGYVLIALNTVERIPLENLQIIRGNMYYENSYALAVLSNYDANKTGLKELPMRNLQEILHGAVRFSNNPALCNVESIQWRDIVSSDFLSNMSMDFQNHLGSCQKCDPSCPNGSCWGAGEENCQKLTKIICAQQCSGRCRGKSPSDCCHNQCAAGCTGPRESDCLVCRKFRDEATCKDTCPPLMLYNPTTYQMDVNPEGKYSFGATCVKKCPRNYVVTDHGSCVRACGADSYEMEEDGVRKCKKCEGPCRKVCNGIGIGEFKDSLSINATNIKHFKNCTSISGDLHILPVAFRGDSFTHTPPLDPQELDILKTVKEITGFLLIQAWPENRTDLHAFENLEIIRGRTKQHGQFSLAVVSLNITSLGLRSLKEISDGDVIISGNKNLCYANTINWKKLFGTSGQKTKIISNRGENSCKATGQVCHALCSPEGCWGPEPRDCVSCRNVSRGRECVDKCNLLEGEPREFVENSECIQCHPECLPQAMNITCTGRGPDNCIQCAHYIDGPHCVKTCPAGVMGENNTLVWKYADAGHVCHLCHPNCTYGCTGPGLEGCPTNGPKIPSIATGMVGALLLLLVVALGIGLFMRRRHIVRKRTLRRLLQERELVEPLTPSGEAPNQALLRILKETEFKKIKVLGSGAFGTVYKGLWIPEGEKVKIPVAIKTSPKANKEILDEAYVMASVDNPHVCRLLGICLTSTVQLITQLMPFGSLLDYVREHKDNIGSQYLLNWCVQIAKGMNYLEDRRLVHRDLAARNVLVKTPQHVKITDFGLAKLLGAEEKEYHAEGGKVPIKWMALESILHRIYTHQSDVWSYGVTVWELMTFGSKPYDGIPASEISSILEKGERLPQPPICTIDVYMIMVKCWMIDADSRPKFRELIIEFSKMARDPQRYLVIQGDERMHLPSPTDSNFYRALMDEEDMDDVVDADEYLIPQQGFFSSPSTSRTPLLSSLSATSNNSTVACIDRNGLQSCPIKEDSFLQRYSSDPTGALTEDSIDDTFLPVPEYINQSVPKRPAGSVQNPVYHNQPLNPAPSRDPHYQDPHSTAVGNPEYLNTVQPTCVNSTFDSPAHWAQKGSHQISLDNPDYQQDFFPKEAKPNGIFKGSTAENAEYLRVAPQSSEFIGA

This assay has as its target Ba/F3 EGFR Del19/C797S cells (Homo sapiens, UniProt P00533, C797S, cells depend on it, form not given). In words: Cell proliferation inhibition (Cell Titer-Glo), Ba/F3 EGFR Del19/C797S. It counts as cell-based, mouse. The note with it: 72 hours, CellTiter-Glo, read-out: Ba/F3 EGFR Del19/C797S IC50. From the text: Experimental objective: The objective of this test example is to test the inhibitory activity of compounds on the proliferation of different EGFR C797S drug-resistant mutant cell lines Ba/F3 EGFR Del19/T790M/C797S, Ba/F3 EGFR L858R/T790M/C797S, and Ba/F3 EGFR Del19/C797S.
• Ba/F3 EGFR Del19/T790M/C797S cells were purchased from KYinno Biotechnology Co., Ltd.; • Ba/F3 EGFR Del19/C797S cells were purchased from CoBioer Biosciences Co., Ltd.; • Ba/F3 EGFR L858R/T790M/C797S cells were purchased from CoBioer Biosciences Co., Ltd.; • Cell Titer-Glo was purchased from Promega, with a catalog number of G7573; • RPMI 1640 was purchased from Gibco, with a catalog number of 22400089; • FBS was purchased from Gibco, with a catalog number of 10091148; • cell culture plates were purchased from Corning, with a catalog number of 3610.
The inhibitory activity of the compound on the proliferation of different EGFR C797S drug-resistant mutant cell lines was detected using the Cell Titer-Glo method. The different cell lines were cultured in RPMI 1640 complete culture medium containing 10% FBS under conditions of 37° C. and 5% CO2, the cells were collected by centrifugation when growing to a certain density, and adjusted to appropriate cell density after counting, the cells were spread on a white 96-well plate at 90 μL/well, and cultured in a 37° C., 5% CO2 incubator overnight, prepared compound solutions of different concentrations were added at 10 μL/well, corresponding solvent controls were set, and all wells were cultured in a 37° C., 5% CO2 incubator for 72 hours, 50 μL of CellTiter-Glo solution was added to each well, shook and mixed evenly, and incubated in the dark for 10 minutes, and a BioTek Synergy H1 microplate reader was used for reading.
The luminescence signal value was used to calculate the inhibition rate. Graphpad Prism software was used to fit the concentration and inhibition rate to a nonlinear regression curve, so as to obtain the IC50 value, as shown in the Table below for details.
In the case of `CC(C)c1ccc(N2C[C@H](CS(C)(=O)=O)[C@H]2C)c2cnc(Nc3ccnc(-c4cn(C5CC5)nc4F)n3)cc12` [Example 9, N-(2-(1-cyclopropyl-3-fluoro-1H-pyrazol-4-yl)pyrimidin-4-yl)-5-isopropyl-8-((2R,3S)-2-methyl-3-((methylsulfonyl)methyl)azetidin-1-yl)isoquinolin-3-amine], the GI50 was 0.057 µM. The figure for `CC(C)c1ncc(N2C[C@H](N(C)S(C)(=O)=O)[C@H]2C)c2cnc(Nc3ccnc(-c4cn(C)nc4Cl)n3)cc12` [Example 59, N-((2R,3S)-1-(7-((2-(3-chloro-1-methyl-1H-pyrazol-4-yl)pyrimidin-4-yl)amino)-1-isopropyl-2,6-diazanaphthalen-4-yl)-2-methylazetidin-3-yl)-N-methyl methanesulfonamide] is 0.005 µM; for `Cc1nn(C)cc1-c1nccc(Nc2cc3c(C(C)C)ncc(N4CC(N(C)S(C)(=O)=O)C4)c3cn2)n1` [Example 60, N-(1-(7-((2-(1,3-dimethyl-1H-pyrazol-4-yl)pyrimidin-4-yl)amino)-1-isopropyl-2,6-diazanaphthalen-4-yl)azetidin-3-yl)-N-methyl methanesulfonamide] it is 0.0056 µM. `Cc1nn(C)cc1-c1nccc(Nc2cc3c(C(C)C)ncc(N4C[C@H](N(C)S(C)(=O)=O)[C@H]4C)c3cn2)n1` [Example 61, N-((2R,3S)-1-(7-((2-(1,3-dimethyl-1H-pyrazol-4-yl)pyrimidin-4-yl)amino)-1-isopropyl-2,6-diazanaphthalen-4-yl)-2-methylazetidin-3-yl)-N-methyl methanesulfonamide]: the GI50 was 0.006 µM. To `Cc1nn(C)cc1-c1nccc(Nc2cc3c(C(C)C)ccc(N4CC(N(C)S(C)(=O)=O)C4)c3cn2)n1` [Example 71, N-(1-(3-((2-(1,3-dimethyl-1H-pyrazol-4-yl)pyrimidin-4-yl)amino)-5-isopropylisoquinolin-8-yl)azetidin-3-yl)-N-methyl methanesulfonamide] belongs 0.017 µM; to `CC(C)c1ccc(N2CC(N=S(C)(C)=O)C2)c2cnc(Nc3ccnc(-c4cn(C)nc4Cl)n3)cc12` [Example 102, ((1-(3-((2-(3-chloro-1-methyl-1H-pyrazol-4-yl)pyrimidin-4-yl)amino)-5-isopropylisoquinolin-8-yl)azetidin-3-yl)imino)dimethyl-16-sulfanone], 0.073 µM; to `CC(C)c1ccc(N2C[C@H](N3CCOC3=O)[C@H]2C)c2cnc(Nc3ccnc(-c4cn(C)nc4Cl)n3)cc12` [Example 109, 3-((2R,3S)-1-(3-((2-(3-chloro-1-methyl-1H-pyrazol-4-yl)pyrimidin-4-yl)amino)-5-isopropylisoquinolin-8-yl)-2-methylazetidin-3-yl)oxazolidin-2-one], 0.014 µM. The figure for `CC(C)c1ccc(N2C[C@H](CS(C)(=O)=O)[C@H]2C)c2cnc(Nc3ccnc(-c4cn(C(C)(C)C#N)nc4Cl)n3)cc12` [Example 112, 2-(3-chloro-4-(4-((5-isopropyl-8-((2R,3S)-2-methyl-3-((methanesulfonyl)methyl)azetidin-1-yl)isoquinolin-3-yl)amino)pyrimidin-2-yl)-1H-pyrazol-1-yl)-2-methylpropanenitrile] is 0.052 µM. Consider `CC(C)c1ccc(N2C[C@H](CS(C)(=O)=O)[C@H]2C)c2cnc(Nc3ccnc(-c4cn(CC(O)C(F)(F)F)nc4Cl)n3)cc12` (stereo partly drawn) [Example 113, 3-(3-chloro-4-(4-((5-isopropyl-8-((2R,3S)-2-methyl-3-((methanesulfonyl)methyl)azetidin-1-yl)isoquinolin-3-yl)amino)pyrimidin-2-yl)-1H-pyrazol-1-yl)-1,1,1-trifluoropropan-2-ol], for which the GI50 is 0.06 µM. To `CC(=O)Cn1cc(-c2nccc(Nc3cc4c(C(C)C)ccc(N5C[C@H](CS(C)(=O)=O)[C@H]5C)c4cn3)n2)c(Cl)n1` [Example 114, 1-(3-chloro-4-(4-((5-isopropyl-8-((2R,3S)-2-methyl-3-((methanesulfonyl)methyl)azetidin-1-yl)isoquinolin-3-yl)amino)pyrimidin-2-yl)-1H-pyrazol-1-yl)propan-2-one] belongs 0.039 µM. For `CC(C)c1ccc(N2C[C@H](CS(C)(=O)=O)[C@H]2C)c2cnc(Nc3ccnc(-c4cn(C(C)C#N)nc4Cl)n3)cc12` (stereo partly drawn) [Example 115, 2-(3-chloro-4-(4-((5-isopropyl-8-((2R,3S)-2-methyl-3-((methanesulfonyl)methyl)azetidin-1-yl)isoquinolin-3-yl)amino)pyrimidin-2-yl)-1H-pyrazol-1-yl)propanenitrile], the GI50 was 0.073 µM. For `CC(C)c1c(F)cc(N2CC(N(C)S(C)(=O)=O)C2)c2cnc(Nc3ccnc(-c4cn(C)nc4Cl)n3)cc12` [Example 124, N-(1-(3-((2-(3-chloro-1-methyl-1H-pyrazol-4-yl)pyrimidin-4-yl)amino)-6-fluoro-5-isopropylisoquinolin-8-yl)azetidin-3-yl)-N-methyl methanesulfonamide], the GI50 is 0.014 µM.

As to `Cc1nn(C)cc1-c1nccc(Nc2cc3c(C(C)C)c(F)cc(N4CC(N(C)S(C)(=O)=O)C4)c3cn2)n1` [Example 129, N-(1-(3-((2-(1,3-dimethyl-1H-pyrazol-4-yl)pyrimidin-4-yl)amino)-6-fluoro-5-isopropylisoquinolin-8-yl)azetidin-3-yl)-N-methyl methanesulfonamide], the GI50 is 0.022 µM. As to `CC(C)c1ncc(N2CC(N(C)S(C)(=O)=O)C2)c2cnc(Nc3ccnc(-c4cn(C)nc4Cl)n3)cc12` [Example 131, N-(1-(7-((2-(3-chloro-1-methyl-1H-pyrazol-4-yl)pyrimidin-4-yl)amino)-1-isopropyl-2,6-diazanaphthalen-4-yl)azetidin-3-yl)-N-methyl methanesulfonamide], the GI50 came out at 0.0074 µM. Turning to `CC(C)c1ncc(N2C[C@H](CS(C)(=O)=O)[C@H]2C)c2cnc(Nc3ccnc(-c4cn(C)nc4Cl)n3)cc12` [Example 133, N-(2-(3-chloro-1-methyl-1H-pyrazol-4-yl)pyrimidin-4-yl)-5-isopropyl-8-((2R,3S)-2-methyl-3-((methanesulfonyl)methyl)azetidin-1-yl)-2,6-diazanaphthalen-3-amine], the GI50 was determined as 0.027 µM. To `CC(C)c1ccc(N2C[C@H](CS(C)(=O)=O)[C@H]2C)c2cnc(Nc3ccnc(-c4cn(C5CC6(COC6)C5)nc4Cl)n3)cc12` [Example 141, N-(2-(3-chloro-1-(2-oxaspiro[3.3]heptan-6-yl)-1H-pyrazol-4-yl)pyrimidin-4-yl)-5-isopropyl-8-((2R,3S)-2-methyl-3-((methanesulfonyl)methyl)azetidin-1-yl)isoquinolin-3-amine] belongs 0.064 µM; to `CC(C)c1ccc(N2C[C@H](CS(C)(=O)=O)[C@H]2C)c2cnc(Nc3ccnc(-c4cn([C@H]5CCOC5)nc4Cl)n3)cc12` [Example 142, N-(2-(3-chloro-1-((S)-tetrahydrofuran-3-yl)-1H-pyrazol-4-yl)pyrimidin-4-yl)-5-isopropyl-8-((2R,3S)-2-methyl-3-((methanesulfonyl)methyl)azetidin-1-yl)isoquinolin-3-amine], 0.041 µM.

Turning to `CC(C)c1ccc(N2C[C@H](CS(C)(=O)=O)[C@H]2C)c2cnc(Nc3ccnc(-c4cn([C@@H]5CCOC5)nc4Cl)n3)cc12` [Example 143, N-(2-(3-chloro-1-((R)-tetrahydrofuran-3-yl)-1H-pyrazol-4-yl)pyrimidin-4-yl)-5-isopropyl-8-((2R,3S)-2-methyl-3-((methanesulfonyl)methyl)azetidin-1-yl)isoquinolin-3-amine], the GI50 amounted to 0.03 µM. `CC(C)c1ccc(N2C[C@H](CS(C)(=O)=O)[C@H]2C)c2cnc(Nc3ccnc(-c4cn(C[C@H]5CCCO5)nc4Cl)n3)cc12` [Example 144, N-(2-(3-chloro-1-(((R)-tetrahydrofuran-2-yl)methyl)-1H-pyrazol-4-yl)pyrimidin-4-yl)-5-isopropyl-8-((2R,3S)-2-methyl-3-((methanesulfonyl)methyl)azetidin-1-yl)isoquinolin-3-amine]: the GI50 turned out to be 0.026 µM. Take `CC(C)c1ccc(N2C[C@H](CS(C)(=O)=O)[C@H]2C)c2cnc(Nc3ccnc(-c4cn(C[C@@H]5CCCO5)nc4Cl)n3)cc12` [Example 145, N-(2-(3-chloro-1-(((S)-tetrahydrofuran-2-yl)methyl)-1H-pyrazol-4-yl)pyrimidin-4-yl)-5-isopropyl-8-((2R,3S)-2-methyl-3-((methanesulfonyl)methyl)azetidin-1-yl)isoquinolin-3-amine]: the GI50 is 0.045 µM.
